US8420653B2, “Pyrimidine compounds and their uses” (Orchid Chemicals & Pharmaceuticals Limited, priority 2008, dated 2013)
Like-named read-outs stand apart in the source and are kept apart here.

Key:
[1] = molecular target: T1, purified recombinant COX-2 (Homo sapiens, UniProt P35354); assay: COX-2 enzyme based assay; type: biochemical; conditions: for inhibition at 10 µM: read-out: % Inhibition in rEnzyme Assay COX-2; for COX2 at 10 μm: Table XVa summary
T1 sequence (P35354 18-604): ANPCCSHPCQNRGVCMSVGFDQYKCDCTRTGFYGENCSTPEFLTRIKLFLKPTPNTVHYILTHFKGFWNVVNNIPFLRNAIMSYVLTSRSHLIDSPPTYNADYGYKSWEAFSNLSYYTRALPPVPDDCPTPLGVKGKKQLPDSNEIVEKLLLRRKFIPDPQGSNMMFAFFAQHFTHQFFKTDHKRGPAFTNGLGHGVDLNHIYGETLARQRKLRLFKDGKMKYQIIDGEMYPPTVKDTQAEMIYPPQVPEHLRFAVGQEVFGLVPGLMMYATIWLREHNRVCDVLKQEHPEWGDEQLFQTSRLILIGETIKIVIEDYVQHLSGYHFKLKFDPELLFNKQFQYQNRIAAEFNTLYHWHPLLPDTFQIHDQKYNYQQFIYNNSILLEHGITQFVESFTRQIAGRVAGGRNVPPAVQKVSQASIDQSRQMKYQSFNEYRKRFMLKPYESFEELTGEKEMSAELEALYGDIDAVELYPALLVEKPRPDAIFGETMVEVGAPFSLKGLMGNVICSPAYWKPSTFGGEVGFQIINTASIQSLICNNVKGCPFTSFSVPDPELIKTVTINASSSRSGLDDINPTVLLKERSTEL
Procedure: COX-1 and COX-2 enzyme based assays were carried out to check the inhibitory potential of the test compounds on the production of prostaglandin by purified recombinant COX-1/COX-2 enzyme (Proc. Nat. Acad. Sci. USA, 88, 2692-2696, 1991; J. Clin. Immunoassay 15, 116-120, 1992). In this assay, the potential of the test compound to inhibit the production of prostaglandin either by COX-1 or COX-2 from arachidonic acid (substrate) was measured. This was an enzyme based in-vitro assay to evaluate selective COX inhibition with good reproducibility.
Arachidonic acid was converted to PGH2 (Intermediate product) by COX1/COX-2 in the presence or absence of the test compound. The reaction was carried out at 37° C. and after 2 minutes it was stopped by adding 1M HCl. Intermediate product PGH2 was converted to a stable prostanoid product PGF2α by SnCl2 reduction. The amount of PGF2α produced in the reaction was inversely proportional to the COX inhibitory potential of the test compound. The prostanoid product was quantified via enzyme immunoassay (EIA) using a broadly specific antibody that binds to all the major forms of prostaglandin, using Cayman ELISA kit as per the procedure outlined by the manufacturer (Cayman Chemicals, Ann Arbor, USA).

[2] = tested on: TNF-α; assay: LPS induced sepsis for measurement of TNF-α inhibition in mice; type: in vivo; conditions: mice; for inhibition in vivo at 50 mg/kg: Mus musculus, 1.5 h, oral, serum 90 minutes after LPS; for TNF -α in vivo (mice): Table XVa summary, unit assumed
Procedure: LPS Induced Sepsis for Measurement of TNF-α Inhibition in Mice
The LPS induced sepsis model in mice was performed as described by Les sekut et al (J Lab Clin Med 1994; 124, 813-20). Female Swiss albino mice were selected and the body weights were equivalent within each group. The mice were fasted for 20 hours with free access to water. The mice were dosed orally with the test compound suspended in vehicle containing 0.5% Tween 80 in 0.25% Carboxy-methylcellulose sodium salt. The control mice were administered the vehicle alone. After 30 minutes of oral dosing, mice were injected with 500 μg of Lipopolysaccharide (Escherichia coli, LPS: B4 from Siga) in phosphate buffer saline solution into the intraperitoneal cavity of the mice. After 90 minutes of LPS administration mice were bled via retro-orbital sinus puncture. Blood samples were stored overnight at 4° C. Serum samples were collected by centrifuging the samples at 4000 rpm for 15 minutes at 4° C. Immediately the serum samples were analyzed for TNF-α levels using commercially available mouse TNF-α ELISA kit (Amersham Biosciences) and assay was performed by the manufacturer instruction.
ED50 Measurement of TNF Alpha Inhibition in Mice Sepsis Model

[3] = tested on: NCI-H460; assay: Anti-cancer screen (MTT), NCI-H460; type: cell-based; conditions: Homo sapiens
Procedure: Experimental drugs are screened for anti-cancer activity in three cell lines for their GI50, TGI and LC50 values (using 5 concentrations for each compound). The cell lines are maintained in DMEM containing 10% fetal bovine serum. 96 well microtiter plates are inoculated with cells in […] for 24 hours at 37° C., 5% CO2, 95% air and 100% relative humidity. 5000 HCT116 cells/well, 5000 NCIH460 cells/well, 10000 U251 cells/well and 5000 MDAMB231 cells/well are plated. A separate plate with these cell lines is also inoculated to determine cell viability before the addition of the compounds (T0).
Following 24-hour incubation, experimental drugs are added to the 96 well plates. Each plate contains one of the above cell lines and the following in triplicate: 5 different concentrations (0.01, 0.1, 1, 10 and 100 μM) of 4 different compounds, appropriate dilutions of a cytotoxic standard and control (untreated) wells. Compounds are dissolved in dimethylsulfoxide (DMSO) to make 20 mM stock solutions, on the day of drug addition and frozen at −20° C. Serial dilutions of these 20 mM stock solutions are made in complete growth medium such that 100 μL of these drug solutions in medium, of final concentrations equaling 0.01, 0.1, 1, 10 and 100 μM can be added to the cells in triplicate. Standard drugs whose anti-cancer activity has been well documented and which are regularly used are doxorubicin and SAHA.
Cells are incubated with compounds for 48 hours followed by the addition of 10 μL 3-(4,5-Dimethyl-2-thiazolyl)-2,5-diphenyl-2H-tetrazolium (MTT) solution per well and a subsequent incubation at 37° C., 5% CO2, 95% air and 100% relative humidity, protected from light. After 4 hours, well contents are aspirated carefully followed by addition of 150 μL DMSO per well. Plates are agitated to ensure solution of the formazan crystals in DMSO and absorbance read at 570 nm.
Percent growth is calculated for each compound's concentration relative to the control and zero measurement wells (T0; viability right before compound addition). If a test well's O.D. value is greater than the T0 measurement for that cell line % Growth=(test−zero)/(control−zero)×100
If a test well's O.D. value is lower than the T0 measurement for that cell line, then: % Growth=(test−zero)/zero×100
Plotting % growth versus experimental drug concentration, GI50 is the concentration required to decrease % growth by 50%; TGI is the concentration required to decrease % growth by 100% and LC50 is the concentration required to decrease % growth by 150%.

[4] = tested on: TNF- α; assay: TNF-α IC50 (Table XVa, assay not given); type: cell-based; conditions: Table XVa summary
[5] = 48 hours, MTT, read-out: GI50 (μM) NCI-H460
[6] = Table XVb summary, for NCI, read-out: Cancer cell lines DU, HCT, NCI (Mean GI50, μm), NCI

Row | Compound | inhibition at 10 µM [1] | COX2 at 10 μm [1] | inhibition in vivo at 50 mg/kg [2] | TNF -α in vivo (mice) [2] | GI50 [3, 5] | GI50 [3, 6] | IC50 [4]
1 | CCOC(=O)C1CCN(c2nc(C(F)(F)F)nc(-c3ccc(F)cc3)c2-c2cccc(S(N)(=O)=O)c2)CC1 [Example 59, Ethyl-1-[5-(3-aminosulfonylphenyl)-6-(4-fluorophenyl)-2-(trifluoromethyl)pyrimidin-4-yl]piperidine-4-carboxylate] | 31% | 31 | 87.2% | 82% | 10.5 µM | 10.5 µM | 0.064 µM
2 | NS(=O)(=O)c1cccc(-c2c(-c3ccc(F)cc3)nc(C(F)(F)F)nc2-n2ccnc2)c1 [Example 80, 3-[4-(4-Fluorophenyl)-6-(1H-imidazol-1-yl)-2-(trifluoromethyl)pyrimidin-5-yl]benzenesulfonamide] | 20% | 20 | 82.8% | 87% | > 100 µM | > 100 µM | 0.078 µM
